The text below walks through data of patent US20260317299A1, “PIKFYVE PROTEIN KINASE DEGRADATION AGENT AND USE THEREOF” (Shanghai Institute of Organic Chemistry, Chinese Academy of …, priority 2023, published 2026).

T1 sequence (Q9Y2I7 whole entry): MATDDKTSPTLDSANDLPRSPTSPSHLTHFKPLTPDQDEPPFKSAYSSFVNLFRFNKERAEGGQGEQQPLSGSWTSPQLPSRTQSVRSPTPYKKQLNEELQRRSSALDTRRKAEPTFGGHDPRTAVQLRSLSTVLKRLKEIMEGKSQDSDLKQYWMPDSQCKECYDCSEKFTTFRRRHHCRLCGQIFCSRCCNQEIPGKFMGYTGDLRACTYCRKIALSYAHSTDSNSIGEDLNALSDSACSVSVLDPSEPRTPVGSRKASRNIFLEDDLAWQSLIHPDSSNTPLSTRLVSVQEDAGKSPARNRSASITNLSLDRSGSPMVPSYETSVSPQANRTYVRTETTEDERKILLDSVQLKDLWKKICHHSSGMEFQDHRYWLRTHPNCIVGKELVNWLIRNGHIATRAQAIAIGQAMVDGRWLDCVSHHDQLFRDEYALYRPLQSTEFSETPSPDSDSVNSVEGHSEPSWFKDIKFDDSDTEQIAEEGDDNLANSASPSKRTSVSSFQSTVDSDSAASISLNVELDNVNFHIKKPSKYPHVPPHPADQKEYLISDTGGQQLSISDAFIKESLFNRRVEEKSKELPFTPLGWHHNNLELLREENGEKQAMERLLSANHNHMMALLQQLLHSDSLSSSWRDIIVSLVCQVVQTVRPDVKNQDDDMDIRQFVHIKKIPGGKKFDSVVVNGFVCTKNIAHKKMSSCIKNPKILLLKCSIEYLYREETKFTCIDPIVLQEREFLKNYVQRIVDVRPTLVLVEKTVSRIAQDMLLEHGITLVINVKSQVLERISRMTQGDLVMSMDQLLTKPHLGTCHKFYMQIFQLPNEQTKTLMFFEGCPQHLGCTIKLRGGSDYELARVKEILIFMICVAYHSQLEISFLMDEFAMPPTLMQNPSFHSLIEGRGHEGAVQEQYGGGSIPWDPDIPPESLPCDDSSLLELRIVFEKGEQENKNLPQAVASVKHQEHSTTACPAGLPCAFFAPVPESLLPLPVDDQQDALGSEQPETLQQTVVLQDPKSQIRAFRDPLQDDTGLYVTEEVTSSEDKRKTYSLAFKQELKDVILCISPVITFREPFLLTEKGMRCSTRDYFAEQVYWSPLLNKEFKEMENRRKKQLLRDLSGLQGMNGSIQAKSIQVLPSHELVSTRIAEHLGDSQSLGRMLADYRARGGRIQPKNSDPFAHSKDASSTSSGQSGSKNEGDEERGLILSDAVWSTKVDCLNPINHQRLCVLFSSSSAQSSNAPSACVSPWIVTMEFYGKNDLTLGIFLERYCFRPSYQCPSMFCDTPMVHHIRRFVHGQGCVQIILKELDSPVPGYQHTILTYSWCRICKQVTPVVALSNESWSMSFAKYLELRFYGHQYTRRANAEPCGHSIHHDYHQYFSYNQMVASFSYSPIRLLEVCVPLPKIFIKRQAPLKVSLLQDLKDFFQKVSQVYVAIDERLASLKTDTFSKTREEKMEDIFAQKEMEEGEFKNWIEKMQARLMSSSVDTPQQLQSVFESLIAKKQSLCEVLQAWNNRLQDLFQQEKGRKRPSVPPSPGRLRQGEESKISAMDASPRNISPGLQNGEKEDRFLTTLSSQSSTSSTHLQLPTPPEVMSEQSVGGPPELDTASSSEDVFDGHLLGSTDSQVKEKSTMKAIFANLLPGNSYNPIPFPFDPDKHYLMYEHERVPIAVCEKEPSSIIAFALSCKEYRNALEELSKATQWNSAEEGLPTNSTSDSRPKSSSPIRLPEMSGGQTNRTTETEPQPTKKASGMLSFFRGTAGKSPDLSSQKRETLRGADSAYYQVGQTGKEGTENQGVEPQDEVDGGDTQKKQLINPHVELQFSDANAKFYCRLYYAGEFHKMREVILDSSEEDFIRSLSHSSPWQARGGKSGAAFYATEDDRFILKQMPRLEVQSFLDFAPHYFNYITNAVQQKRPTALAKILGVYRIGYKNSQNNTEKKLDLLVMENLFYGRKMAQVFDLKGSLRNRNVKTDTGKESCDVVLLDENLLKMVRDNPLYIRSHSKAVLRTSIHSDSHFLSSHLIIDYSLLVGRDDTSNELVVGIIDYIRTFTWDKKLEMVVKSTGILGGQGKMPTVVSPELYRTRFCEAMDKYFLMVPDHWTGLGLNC

The test addresses T1, PIKfyve (Homo sapiens, UniProt Q9Y2I7).
T1 construct: endogenous in cells; host or cells: VCaP
The experiment in a line: Degradation of PIKfyve proteins in VCaP tumor cells (24 h, Western blot). It counts as cell-based. To be noted: 37° C., compared with DMSO control, WB, read-out: DC50 (concentration that achieves 50% degradation activity). The procedure, abridged:
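VCaP cells (5×10^6 cells/ml) treated with a range of compound concentrations at 37° C for 24 h, then lysed in SDS buffer. PIKfyve level measured by Western blot with GAPDH as loading control and ECL detection. DC50 is the concentration giving 50% degradation relative to DMSO control.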
In the case of `Cc1cccc(/C=N/Nc2cc(N3CCOCC3)nc(OCCc3ccc(NC(=O)CCCCCC(=O)N[C@H](C(=O)N4C[C@H](O)C[C@H]4C(=O)N[C@@H](C)c4ccc(-c5scnc5C)cc4)C(C)(C)C)cc3)n2)c1` [Example 47], the DC50 lay in the range of 0.001 to 0.1 µM. The result for `Cc1cccc(-c2ccn(-c3cc(N4CCOCC4)nc(OCCc4ccc(C#CC5CCN(C(=O)CCCC[C@H](NC(=O)[C@@H]6C[C@@H](O)CN6C(=O)[C@@H](NC(=O)C6(F)CC6)C(C)(C)C)c6ccc(-c7scnc7C)cc6)CC5)cc4)n3)n2)c1` [Example 72, (2S,4R)-1-((S)-2-(1-fluorocyclopropane-1-carboxamido)-3,3-dimethylbutanoyl)-4-hydroxy-N—((S)-1-(4-(4-methylthiazol-5-yl)phenyl)-6-(4-((4-(2-((4-morpholino-6-(3-(m-tolyl)-1H-pyrazol-1-yl)pyrimidin-2-yl)oxy)ethyl)phenyl)ethynyl)piperidin-1-yl)-6-oxohexyl) pyrrolidine-2-carboxamide] reads 0.001 to 0.1 µM. Next, `Cc1cccc(/C=N/Nc2cc(N3CCOCC3)nc(OCCc3ccc(NC(=O)CCCCCCCCC(=O)Nc4cccc5c4C(=O)N(C4CCC(=O)NC4=O)C5)cc3)n2)c1` (stereo not shown) [Example 35, (E)-N^1-(2-(2,6-dioxopiperidin-3-yl)-3-oxoisoindolin-4-yl)-N^10-(4-(2-((4-(2-(3-methylbenzylidene)hydrazino)-6-morpholinopyrimidin-2-yl)oxy)ethyl)phenyl)decanediamide]: 0.1 to 10 µM. The result for `Cc1cccc(/C=N/Nc2cc(N3CCOCC3)nc(OCCc3ccc(NC(=O)CCCCCNc4cccc5c4C(=O)N(C4CCC(=O)NC4=O)C5=O)cc3)n2)c1` (stereo not shown) [Example 13, (E)-6-((2-(2,6-dioxopiperidin-3-yl)-1,3-dioxoisoindolin-4-yl)amino)-N-(4-(2-((4-(2-(3-methylbenzylidene)hydrazino)-6-morpholinopyrimidin-2-yl)oxy)ethyl)phenyl)hexanamide] reads 0.1 to 10 µM; that for `Cc1cccc(-c2ccn(-c3cc(N4CCOCC4)nc(OCCc4ccc(N5CCN(C(=O)CCCC[C@H](NC(=O)[C@@H]6C[C@@H](O)CN6C(=O)[C@@H](NC(=O)C6(F)CC6)C(C)(C)C)c6ccc(-c7scnc7C)cc6)CC5)cc4)n3)n2)c1` [Example 77, (2S,4R)-1-((S)-2-(1-fluorocyclopropane-1-carboxamido)-3,3-dimethylbutanoyl)-4-hydroxy-N—((S)-1-(4-(4-methylthiazol-5-yl)phenyl)-6-(4-(4-(2-((4-morpholino-6-(3-(m-tolyl)-1H-pyrazol-1-yl)pyrimidin-2-yl)oxy)ethyl)phenyl)piperazin-1-yl)-6-oxohexyl)pyrrolidine-2-carboxamide], 0.001 to 0.1 µM. As for `Cc1cccc(-c2ccn(-c3cc(N4CCOCC4)nc(Oc4ccc(N5CCN(CC6CCN(c7cc8c(cc7F)C(=O)N(C7CCC(=O)NC7=O)C8=O)CC6)CC5)cc4)n3)n2)c1` (stereo not shown) [Example 96, 2-(2,6-Dioxopiperidin-3-yl)-5-fluoro-6-(4-((4-(4-((4-morpholino-6-(3-(m-tolyl)-1H-pyrazol-1-yl)pyrimidin-2-yl)oxy)phenyl)piperazin-1-yl)methyl)piperidin-1-yl)isoindoline-1,3-dione], the DC50 fell in the range of 0.1 to 10 µM. Consider `Cc1cccc(/C=N/Nc2cc(N3CCOCC3)nc(OCCc3ccc(NC(=O)CCCCCCCCCNc4ccc5c(c4)C(=O)N(C4CCC(=O)NC4=O)C5=O)cc3)n2)c1` (stereo not shown) [Example 19, (E)-10-((2-(2,6-dioxopiperidin-3-yl)-1,3-dioxoisoindolin-5-yl)amino)-N-(4-(2-((4-(2-(3-methylbenzylidene)hydrazino)-6-morpholinopyrimidin-2-yl)oxy)ethyl)phenyl) decanamide], for which the DC50 lay in the range of 0.1 to 10 µM.

With `Cc1cccc(/C=N/Nc2cc(N3CCOCC3)nc(OCCc3ccc(NC(=O)CCCCCCCC(=O)N[C@H](C(=O)N4C[C@H](O)C[C@H]4C(=O)NCc4ccc(-c5scnc5C)cc4)C(C)(C)C)cc3)n2)c1` [Example 43, N^1—((S)-1-((2S,4R)-4-hydroxy-2-((4-(4-methylthiazol-5-yl)benzyl)carbamoyl)pyrrolidine-1-yl)-3,3-dimethyl-1-oxobutan-2-yl)-N^9-(4-(2-((4-(2-((E)-3-methylbenzylidene) hydrazino)-6-morpholinopyrimidin-2-yl)oxy)ethyl)phenyl)nonediamide], the DC50 was in the range of 0.001 to 0.1 µM. Next, `Cc1cccc(-c2ccn(-c3cc(N4CCOCC4)nc(OCCc4ccc(C#CC5CCN(C(=O)C[C@H](NC(=O)[C@@H]6C[C@@H](O)CN6C(=O)[C@@H](NC(=O)C6(F)CC6)C(C)(C)C)c6ccc(-c7scnc7C)cc6)CC5)cc4)n3)n2)c1` [Example 70, (2S,4R)-1-((S)-2-(1-fluorocyclopropane-1-carboxamido)-3,3-dimethylbutanoyl)-4-hydroxy-N—((S)-1-(4-(4-methylthiazol-5-yl)phenyl)-3-(4-((4-(2-((4-morpholino-6-(3-(m-tolyl)-1H-pyrazol-1-yl)pyrimidin-2-yl)oxy)ethyl)phenyl)ethynyl)piperidin-1-yl)-3-oxopropyl) pyrrolidine-2-carboxamide]: 0.001 to 0.1 µM.

On to `Cc1cccc(-c2ccn(-c3cc(N4CCOCC4)nc(OC4CCN(c5ccc(NC(=O)NC6CN(C(=O)CC[C@H](NC(=O)[C@@H]7C[C@@H](O)CN7C(=O)[C@@H](NC(=O)C7(F)CC7)C(C)(C)C)c7ccc(-c8scnc8C)cc7)C6)cc5)CC4)n3)n2)c1` [Example 81, (2S,4R)-1-((S)-2-(1-fluorocyclopropane-1-carboxamido)-3,3-dimethylbutanoyl)-4-hydroxy-N—((S)-1-(4-(4-methylthiazol-5-yl)phenyl)-4-(3-(3-(4-(4-((4-morpholino-6-(3-(m-tolyl)-1H-pyrazol-1-yl)pyrimidin-2-yl)oxy)piperidin-1-yl)phenyl)ureido)azetidin-1-yl)-4-oxobutyl)pyrrolidine-2-carboxamide], for which the DC50 lay in the range of 0.001 to 0.1 µM. The result for `Cc1cccc(/C=N/Nc2cc(N3CCOCC3)nc(OCCc3ccc(NC(=O)CCCNc4ccc5c(c4)C(=O)N(C4CCC(=O)NC4=O)C5=O)cc3)n2)c1` (stereo not shown) [Example 16, (E)-4-((2-(2,6-dioxopiperidin-3-yl)-1,3-dioxoisoindolin-5-yl)amino)-N-(4-(2-((4-(2-(3-methylbenzylidene)hydrazino)-6-morpholinopyrimidin-2-yl)oxy)ethyl)phenyl) butanamide] reads 0.1 to 10 µM. Next, `Cc1cccc(-c2ccn(-c3cc(N4CCOCC4)nc(OCCc4ccc(NC(=O)CNC(=O)CC[C@H](NC(=O)[C@@H]5C[C@@H](O)CN5C(=O)[C@@H](NC(=O)C5(F)CC5)C(C)(C)C)c5ccc(-c6scnc6C)cc5)cc4)n3)n2)c1` [Example 65, (2S,4R)-1-((S)-2-(1-fluorocyclopropane-1-carboxamido)-3,3-dimethylbutanoyl)-4-hydroxy-N—((S)-1-(4-(4-methylthiazol-5-yl)phenyl)-4-((2-((4-(2-((4-morpholino-6-(3-(m-tolyl)-1H-pyrazol-1-yl)pyrimidin-2-yl)oxy)ethyl)phenyl)amino)-2-oxoethyl)amino)-4-oxobutyl)pyrrolidine-2-carboxamide]: 0.001 to 0.1 µM; `Cc1cccc(-c2ccn(-c3cc(N4CCOCC4)nc(OC4CCN(c5ccc(NC(=O)NC6CCN(C(=O)CC[C@H](NC(=O)[C@@H]7C[C@@H](O)CN7C(=O)[C@@H](NC(=O)C7(F)CC7)C(C)(C)C)c7ccc(-c8scnc8C)cc7)CC6)cc5)CC4)n3)n2)c1` [Example 83, (2S,4R)-1-((S)-2-(1-fluorocyclopropane-1-carboxamido)-3,3-dimethylbutanoyl)-4-hydroxy-N—((S)-1-(4-(4-methylthiazol-5-yl)phenyl)-4-(4-(3-(4-(4-((4-morpholino-6-(3-(m-tolyl)-1H-pyrazol-1-yl)pyrimidin-2-yl)oxy)piperidin-1-yl)phenyl)ureido)piperidin-1-yl)-4-oxobutyl)pyrrolidine-2-carboxamide]: 0.001 to 0.1 µM. For `Cc1cccc(-c2ccn(-c3cc(N4CCOCC4)nc(OC4CCN(c5ccc(NC(=O)CC[C@H](NC(=O)[C@@H]6C[C@@H](O)CN6C(=O)[C@@H](NC(=O)C6(F)CC6)C(C)(C)C)c6ccc(-c7scnc7C)cc6)cc5)CC4)n3)n2)c1` [Example 68, (2S,4R)-1-((S)-2-(1-fluorocyclopropane-1-carboxamido)-3,3-dimethylbutanoyl)-4-hydroxy-N—((S)-1-(4-(4-methylthiazol-5-yl)phenyl)-4-((4-(4-((4-morpholino-6-(3-(m-tolyl)-1H-pyrazol-1-yl)pyrimidin-2-yl)oxy)piperidin-1-yl)phenyl)amino)-4-oxobutyl)pyrrolidine-2-carboxamide], the DC50 fell in the range of 0.001 to 0.1 µM.

For `Cc1cccc(/C=N/Nc2cc(N3CCOCC3)nc(OCCc3ccc(NC(=O)CNC(=O)CC[C@H](NC(=O)[C@@H]4C[C@@H](O)CN4C(=O)[C@@H](NC(=O)C4(F)CC4)C(C)(C)C)c4ccc(-c5scnc5C)cc4)cc3)n2)c1` [Example 50, (2S,4R)-1-((S)-2-(1-fluorocyclopropane-1-carboxamido)-3,3-dimethylbutanoyl)-4-hydroxy-N—((S)-4-((2-((4-(2-((4-(2-((E)-3-methylbenzylidene)hydrazino)-6-morpholinopyrimidin-2-yl)oxy)ethyl)phenyl)amino)-2-oxoethyl)amino)-1-(4-(4-methylthiazol-5-yl)phenyl)4-oxobutyl)pyrrolidine-2-carboxamide], the DC50 lay within 0.001 to 0.1 µM. The result for `Cc1cccc(-c2ccn(-c3cc(N4CCOCC4)nc(OCCc4ccc(NC(=O)NC5CN(C(=O)CC[C@H](NC(=O)[C@@H]6C[C@@H](O)CN6C(=O)[C@@H](NC(=O)C6(F)CC6)C(C)(C)C)c6ccc(-c7scnc7C)cc6)C5)cc4)n3)n2)c1` [Example 74, (2S,4R)-1-((S)-2-(1-fluorocyclopropane-1-carboxamido)-3,3-dimethylbutanoyl)-4-hydroxy-N—((S)-1-(4-(4-methylthiazol-5-yl)phenyl)-4-(3-(3-(4-(2-((4-morpholino-6-(3-(m-tolyl)-1H-pyrazol-1-yl)pyrimidin-2-yl)oxy)ethyl)phenyl)ureido)azetidin-1-yl)-4-oxobutyl) pyrrolidine-2-carboxamide] reads 0.001 to 0.1 µM.
